Each structure is given as a SMILES string.

For the data set the following is noted: 0.022 mg/mL.

Method: To evaluate buffers with different pH, eleven milligrams of Dexamethasone Acetate was dissolved in 500 mL of media (different pH adjusted buffers).

As to `CC(=O)OCC(=O)[C@@]1(O)[C@H](C)C[C@H]2[C@@H]3CCC4=CC(=O)C=C[C@]4(C)[C@@]3(F)[C@@H](O)C[C@@]21C` [Dexamethasone Acetate], the “stability with respect to pH (order)” value is “pH 3>pH 5≅acetate pH 5.7>water>pH 7>pH 9”.

The values above are taken from US8097224B2, “Apparatuses and media for drug elution and methods for making and using them” (Medtronic MiniMed, Inc., priority 2007, dated 2012).
